Measurements taken from ChEMBL document CHEMBL4507268 (2021).

How the values were obtained:
[1] = target: Fibroblast growth factor receptor 3 (Homo sapiens) (UniProt P22607); settings: Compound concentration 1.0 uM
[2] = target: Eukaryotic translation initiation factor 2-alpha kinase 1 (Homo sapiens) (UniProt Q9BQI3); settings: Compound concentration 1.0 uM
[3] = target: LIM domain kinase 1 (Homo sapiens) (UniProt P53667); settings: Compound concentration 1.0 uM
[4] = target: Dual specificity mitogen-activated protein kinase kinase 2 (Homo sapiens) (UniProt P36507); settings: Compound concentration 1.0 uM
Dual specificity mitogen-activated protein kinase kinase 2 (Homo sapiens), sequence (P36507 whole entry): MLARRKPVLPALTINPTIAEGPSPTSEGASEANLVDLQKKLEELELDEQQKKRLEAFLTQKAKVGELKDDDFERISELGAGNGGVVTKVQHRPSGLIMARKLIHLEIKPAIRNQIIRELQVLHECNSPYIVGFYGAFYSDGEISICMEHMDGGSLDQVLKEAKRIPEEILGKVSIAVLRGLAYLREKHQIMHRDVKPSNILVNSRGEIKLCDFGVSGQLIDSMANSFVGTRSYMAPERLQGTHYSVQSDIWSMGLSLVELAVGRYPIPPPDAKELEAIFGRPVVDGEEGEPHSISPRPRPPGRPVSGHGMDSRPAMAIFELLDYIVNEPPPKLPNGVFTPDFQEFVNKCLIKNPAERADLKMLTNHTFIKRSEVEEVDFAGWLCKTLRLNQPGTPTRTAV

[5] = target: G protein-coupled receptor kinase 6 (Homo sapiens) (UniProt P43250); settings: Compound concentration 1.0 uM
G protein-coupled receptor kinase 6 (Homo sapiens), sequence (P43250 whole entry, looked up): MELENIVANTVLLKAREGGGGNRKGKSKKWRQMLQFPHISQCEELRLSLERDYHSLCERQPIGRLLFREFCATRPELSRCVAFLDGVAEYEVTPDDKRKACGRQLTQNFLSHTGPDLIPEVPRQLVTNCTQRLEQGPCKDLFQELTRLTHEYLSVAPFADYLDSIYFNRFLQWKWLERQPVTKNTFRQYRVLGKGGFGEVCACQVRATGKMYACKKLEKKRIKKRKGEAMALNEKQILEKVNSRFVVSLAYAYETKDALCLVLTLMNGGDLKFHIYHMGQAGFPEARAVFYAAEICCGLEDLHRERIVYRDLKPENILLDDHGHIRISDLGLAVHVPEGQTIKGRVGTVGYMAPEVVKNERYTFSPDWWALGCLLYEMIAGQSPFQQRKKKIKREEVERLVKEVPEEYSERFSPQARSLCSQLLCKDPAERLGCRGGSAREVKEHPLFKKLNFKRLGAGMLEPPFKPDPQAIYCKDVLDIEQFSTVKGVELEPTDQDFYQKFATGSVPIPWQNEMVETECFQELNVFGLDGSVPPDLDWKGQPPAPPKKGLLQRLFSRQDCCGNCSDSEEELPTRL

[6] = target: SRSF protein kinase 3 (Homo sapiens) (UniProt Q9UPE1); settings: Compound concentration 1.0 uM
SRSF protein kinase 3 (Homo sapiens), sequence (Q9UPE1 whole entry): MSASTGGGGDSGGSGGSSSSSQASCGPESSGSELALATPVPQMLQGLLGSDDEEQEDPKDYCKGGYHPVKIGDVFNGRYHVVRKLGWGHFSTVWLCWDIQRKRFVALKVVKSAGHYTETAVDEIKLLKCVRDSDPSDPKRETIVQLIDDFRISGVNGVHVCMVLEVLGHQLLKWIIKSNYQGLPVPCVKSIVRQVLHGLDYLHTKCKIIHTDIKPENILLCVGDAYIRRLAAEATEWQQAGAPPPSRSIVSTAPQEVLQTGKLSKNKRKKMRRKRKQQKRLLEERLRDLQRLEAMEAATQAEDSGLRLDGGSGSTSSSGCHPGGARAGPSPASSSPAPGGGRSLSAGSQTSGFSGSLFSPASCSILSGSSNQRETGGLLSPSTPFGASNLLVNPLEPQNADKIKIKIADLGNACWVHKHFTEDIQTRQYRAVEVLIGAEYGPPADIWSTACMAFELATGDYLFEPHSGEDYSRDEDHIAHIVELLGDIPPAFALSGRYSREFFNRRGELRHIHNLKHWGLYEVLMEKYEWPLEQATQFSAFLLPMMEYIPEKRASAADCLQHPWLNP

[7] = target: T1, Ephrin type-B receptor 2 (Homo sapiens) (UniProt P29323); settings: Compound concentration 1.0 uM
T1 sequence (whole entry): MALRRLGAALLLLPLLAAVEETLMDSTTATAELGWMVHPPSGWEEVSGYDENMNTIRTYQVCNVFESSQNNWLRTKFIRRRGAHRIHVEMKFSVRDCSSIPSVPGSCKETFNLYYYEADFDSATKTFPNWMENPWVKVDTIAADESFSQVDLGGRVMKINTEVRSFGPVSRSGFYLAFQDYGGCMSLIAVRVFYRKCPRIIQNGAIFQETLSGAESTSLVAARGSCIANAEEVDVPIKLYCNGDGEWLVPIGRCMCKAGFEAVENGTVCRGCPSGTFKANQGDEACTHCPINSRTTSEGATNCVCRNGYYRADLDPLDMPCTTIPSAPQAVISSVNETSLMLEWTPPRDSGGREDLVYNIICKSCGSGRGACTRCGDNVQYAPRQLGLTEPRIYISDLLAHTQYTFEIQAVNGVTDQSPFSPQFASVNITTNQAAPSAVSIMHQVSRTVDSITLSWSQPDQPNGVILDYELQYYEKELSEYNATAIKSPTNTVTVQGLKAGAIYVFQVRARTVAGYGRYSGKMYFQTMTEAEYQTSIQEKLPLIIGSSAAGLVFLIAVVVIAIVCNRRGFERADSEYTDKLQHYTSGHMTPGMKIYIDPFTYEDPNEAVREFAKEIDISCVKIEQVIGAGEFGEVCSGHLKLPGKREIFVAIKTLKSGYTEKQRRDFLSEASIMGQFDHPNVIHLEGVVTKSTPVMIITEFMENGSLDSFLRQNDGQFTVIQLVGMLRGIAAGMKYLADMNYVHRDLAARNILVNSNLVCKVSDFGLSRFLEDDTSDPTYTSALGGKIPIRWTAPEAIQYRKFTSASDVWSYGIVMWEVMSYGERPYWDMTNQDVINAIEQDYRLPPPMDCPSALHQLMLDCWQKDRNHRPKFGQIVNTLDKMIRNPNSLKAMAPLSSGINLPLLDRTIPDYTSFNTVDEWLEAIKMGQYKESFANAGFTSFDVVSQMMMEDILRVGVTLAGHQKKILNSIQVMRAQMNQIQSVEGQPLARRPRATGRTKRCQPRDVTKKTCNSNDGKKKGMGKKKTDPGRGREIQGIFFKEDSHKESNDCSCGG

[8] = target: Protein-tyrosine kinase 6 (Homo sapiens) (UniProt Q13882); settings: Compound concentration 1.0 uM
Protein-tyrosine kinase 6 (Homo sapiens), sequence (Q13882 whole entry, looked up): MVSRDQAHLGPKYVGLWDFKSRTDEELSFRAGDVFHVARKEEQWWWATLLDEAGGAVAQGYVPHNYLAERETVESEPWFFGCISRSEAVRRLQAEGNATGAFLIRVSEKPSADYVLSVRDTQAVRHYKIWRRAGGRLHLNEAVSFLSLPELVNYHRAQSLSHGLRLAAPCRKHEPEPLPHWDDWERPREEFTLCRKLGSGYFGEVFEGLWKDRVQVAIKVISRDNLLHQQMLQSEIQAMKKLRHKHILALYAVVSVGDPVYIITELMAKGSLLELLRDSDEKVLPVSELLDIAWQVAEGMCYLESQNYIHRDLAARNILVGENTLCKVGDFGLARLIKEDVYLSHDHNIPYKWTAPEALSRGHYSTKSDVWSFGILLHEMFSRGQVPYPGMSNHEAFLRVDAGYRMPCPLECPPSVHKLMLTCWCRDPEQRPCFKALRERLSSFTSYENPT

[9] = target: T2, Myosin-IIIb (Homo sapiens) (UniProt Q8WXR4); settings: Compound concentration 1.0 uM
T2 sequence (whole entry): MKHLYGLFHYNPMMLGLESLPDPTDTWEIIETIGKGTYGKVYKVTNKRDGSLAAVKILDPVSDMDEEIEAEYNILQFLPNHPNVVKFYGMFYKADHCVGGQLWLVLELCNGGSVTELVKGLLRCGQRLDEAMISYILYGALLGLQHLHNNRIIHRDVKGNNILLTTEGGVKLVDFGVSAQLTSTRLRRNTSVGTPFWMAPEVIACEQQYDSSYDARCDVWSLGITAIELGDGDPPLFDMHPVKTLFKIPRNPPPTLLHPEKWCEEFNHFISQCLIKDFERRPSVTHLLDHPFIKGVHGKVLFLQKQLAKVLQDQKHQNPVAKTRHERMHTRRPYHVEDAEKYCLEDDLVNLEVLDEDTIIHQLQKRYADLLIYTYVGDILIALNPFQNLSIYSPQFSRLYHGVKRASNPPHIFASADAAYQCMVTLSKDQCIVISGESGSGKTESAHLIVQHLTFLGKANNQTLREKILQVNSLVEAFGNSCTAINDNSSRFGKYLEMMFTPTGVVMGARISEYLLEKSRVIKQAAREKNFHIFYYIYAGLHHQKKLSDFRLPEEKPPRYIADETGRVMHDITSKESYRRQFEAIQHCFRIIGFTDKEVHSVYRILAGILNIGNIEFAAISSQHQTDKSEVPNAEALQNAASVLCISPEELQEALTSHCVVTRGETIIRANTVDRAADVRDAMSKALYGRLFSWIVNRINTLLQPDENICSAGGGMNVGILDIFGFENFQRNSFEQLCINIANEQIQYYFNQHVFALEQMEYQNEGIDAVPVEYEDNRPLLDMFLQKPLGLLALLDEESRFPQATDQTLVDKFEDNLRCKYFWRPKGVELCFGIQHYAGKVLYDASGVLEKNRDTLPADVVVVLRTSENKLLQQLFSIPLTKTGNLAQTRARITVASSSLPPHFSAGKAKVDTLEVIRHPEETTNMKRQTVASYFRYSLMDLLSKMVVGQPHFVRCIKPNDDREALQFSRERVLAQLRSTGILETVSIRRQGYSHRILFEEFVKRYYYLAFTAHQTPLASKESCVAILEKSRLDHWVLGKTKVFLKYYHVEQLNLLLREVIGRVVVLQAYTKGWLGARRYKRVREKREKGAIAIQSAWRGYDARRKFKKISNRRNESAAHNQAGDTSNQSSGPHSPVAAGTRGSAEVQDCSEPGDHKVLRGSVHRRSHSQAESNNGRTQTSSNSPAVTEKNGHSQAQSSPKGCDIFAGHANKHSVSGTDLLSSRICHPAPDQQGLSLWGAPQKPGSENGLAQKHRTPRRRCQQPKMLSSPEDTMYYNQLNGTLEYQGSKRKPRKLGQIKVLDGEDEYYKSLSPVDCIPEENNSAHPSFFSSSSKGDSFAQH

[10] = target: Serine/threonine-protein kinase PLK1 (Homo sapiens) (UniProt P53350); settings: Compound concentration 1.0 uM
Serine/threonine-protein kinase PLK1 (Homo sapiens), sequence (P53350 whole entry): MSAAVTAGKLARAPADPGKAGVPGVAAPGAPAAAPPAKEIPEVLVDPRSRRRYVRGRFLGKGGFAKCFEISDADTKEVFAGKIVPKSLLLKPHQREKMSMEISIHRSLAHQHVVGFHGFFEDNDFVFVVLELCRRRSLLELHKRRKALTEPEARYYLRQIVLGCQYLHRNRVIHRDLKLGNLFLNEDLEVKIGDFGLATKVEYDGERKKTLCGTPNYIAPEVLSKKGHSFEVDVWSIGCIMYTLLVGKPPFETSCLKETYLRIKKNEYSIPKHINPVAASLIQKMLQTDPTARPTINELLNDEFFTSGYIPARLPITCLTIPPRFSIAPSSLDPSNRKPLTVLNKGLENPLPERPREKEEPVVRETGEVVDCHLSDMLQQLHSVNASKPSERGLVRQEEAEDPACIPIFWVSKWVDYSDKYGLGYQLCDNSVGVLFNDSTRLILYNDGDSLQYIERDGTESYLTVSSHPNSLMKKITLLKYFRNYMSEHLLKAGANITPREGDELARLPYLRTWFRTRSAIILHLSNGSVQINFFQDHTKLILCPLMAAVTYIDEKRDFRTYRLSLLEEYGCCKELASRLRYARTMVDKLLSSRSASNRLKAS

[11] = target: Receptor tyrosine-protein kinase erbB-2 (Homo sapiens) (UniProt P04626); settings: Compound concentration 1.0 uM
[12] = target: Muscarinic acetylcholine receptor M4 (Homo sapiens) (UniProt P08173); settings: Compound concentration 10.0 uM
Muscarinic acetylcholine receptor M4 (Homo sapiens), sequence (P08173 whole entry): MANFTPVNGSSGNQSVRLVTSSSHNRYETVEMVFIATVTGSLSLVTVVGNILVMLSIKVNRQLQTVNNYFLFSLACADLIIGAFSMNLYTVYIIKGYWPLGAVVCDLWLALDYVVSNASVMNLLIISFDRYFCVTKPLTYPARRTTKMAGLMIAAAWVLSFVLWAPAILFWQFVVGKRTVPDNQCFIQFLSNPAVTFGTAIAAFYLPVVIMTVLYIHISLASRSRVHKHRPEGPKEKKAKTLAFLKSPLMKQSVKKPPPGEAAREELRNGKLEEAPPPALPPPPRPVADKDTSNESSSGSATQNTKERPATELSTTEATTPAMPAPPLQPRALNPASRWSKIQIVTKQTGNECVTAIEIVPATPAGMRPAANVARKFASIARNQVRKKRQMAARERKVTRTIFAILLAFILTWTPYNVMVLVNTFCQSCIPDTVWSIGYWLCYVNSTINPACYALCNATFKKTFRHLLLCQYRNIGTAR

[13] = target: D(1A) dopamine receptor (Homo sapiens) (UniProt P21728); settings: Compound concentration 10.0 uM
D(1A) dopamine receptor (Homo sapiens), sequence (P21728 whole entry): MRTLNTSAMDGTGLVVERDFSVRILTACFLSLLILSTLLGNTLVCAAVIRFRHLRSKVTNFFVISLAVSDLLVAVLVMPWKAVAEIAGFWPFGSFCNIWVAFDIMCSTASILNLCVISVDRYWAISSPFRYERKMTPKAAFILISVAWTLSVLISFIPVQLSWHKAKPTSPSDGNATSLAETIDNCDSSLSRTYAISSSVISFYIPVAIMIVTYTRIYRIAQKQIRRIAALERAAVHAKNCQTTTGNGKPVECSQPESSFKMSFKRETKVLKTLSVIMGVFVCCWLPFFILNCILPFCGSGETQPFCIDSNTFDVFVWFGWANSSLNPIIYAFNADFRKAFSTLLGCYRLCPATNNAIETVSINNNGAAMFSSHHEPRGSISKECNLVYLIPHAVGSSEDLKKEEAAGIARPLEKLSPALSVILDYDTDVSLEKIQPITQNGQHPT

Fibroblast growth factor receptor 3 (Homo sapiens), sequence (P22607 23-806 limits assumed): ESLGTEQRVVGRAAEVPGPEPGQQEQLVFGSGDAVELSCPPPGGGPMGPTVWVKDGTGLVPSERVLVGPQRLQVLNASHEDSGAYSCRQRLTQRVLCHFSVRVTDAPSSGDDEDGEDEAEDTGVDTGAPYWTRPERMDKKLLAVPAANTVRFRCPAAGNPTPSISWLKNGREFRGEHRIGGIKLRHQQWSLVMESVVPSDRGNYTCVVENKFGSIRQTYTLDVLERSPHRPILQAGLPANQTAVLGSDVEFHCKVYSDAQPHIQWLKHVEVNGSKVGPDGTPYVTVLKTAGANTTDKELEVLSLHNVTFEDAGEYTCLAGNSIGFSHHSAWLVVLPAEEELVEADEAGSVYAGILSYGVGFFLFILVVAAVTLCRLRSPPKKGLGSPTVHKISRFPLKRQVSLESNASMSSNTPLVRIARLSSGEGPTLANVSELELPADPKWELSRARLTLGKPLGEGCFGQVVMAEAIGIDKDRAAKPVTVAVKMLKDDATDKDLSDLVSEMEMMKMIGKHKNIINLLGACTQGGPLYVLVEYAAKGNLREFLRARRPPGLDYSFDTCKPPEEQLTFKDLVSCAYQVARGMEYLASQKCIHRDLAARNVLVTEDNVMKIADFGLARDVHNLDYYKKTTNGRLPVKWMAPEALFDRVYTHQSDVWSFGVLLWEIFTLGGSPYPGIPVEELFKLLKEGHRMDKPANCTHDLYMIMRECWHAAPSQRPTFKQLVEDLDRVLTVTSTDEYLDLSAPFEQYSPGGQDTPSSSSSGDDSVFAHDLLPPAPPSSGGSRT
LIM domain kinase 1 (Homo sapiens), sequence (P53667 whole entry, looked up, the tested form may be a part): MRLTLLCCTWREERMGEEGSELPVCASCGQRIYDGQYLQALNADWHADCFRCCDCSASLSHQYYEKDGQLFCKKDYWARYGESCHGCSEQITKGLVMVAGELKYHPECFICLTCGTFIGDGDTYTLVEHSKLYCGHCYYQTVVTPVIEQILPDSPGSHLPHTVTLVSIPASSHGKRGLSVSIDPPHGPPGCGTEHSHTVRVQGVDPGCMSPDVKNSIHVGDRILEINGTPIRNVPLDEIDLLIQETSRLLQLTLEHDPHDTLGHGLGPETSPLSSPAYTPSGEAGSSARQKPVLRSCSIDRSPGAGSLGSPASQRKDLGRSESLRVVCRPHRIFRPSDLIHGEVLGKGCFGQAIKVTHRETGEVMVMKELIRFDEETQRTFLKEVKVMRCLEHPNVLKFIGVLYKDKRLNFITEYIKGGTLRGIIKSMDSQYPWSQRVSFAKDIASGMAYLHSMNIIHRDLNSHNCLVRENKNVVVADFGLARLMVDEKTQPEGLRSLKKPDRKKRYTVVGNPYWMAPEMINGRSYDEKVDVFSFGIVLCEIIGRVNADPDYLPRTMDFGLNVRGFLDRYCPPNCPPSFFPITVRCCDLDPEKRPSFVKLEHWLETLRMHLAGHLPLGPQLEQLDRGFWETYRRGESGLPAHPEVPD

CN1CCN(c2cnc3c(C4CCN(C(=O)c5ccc(OC(F)(F)F)cc5N)CC4)ncnc3c2)CC1 [BAY-885]
inactive: % residual kinase activity [1] 106% | % residual kinase activity [2] 104% | % residual kinase activity [3] 93% | % residual kinase activity [4] 103% | % residual kinase activity [5] 111% | % residual kinase activity [6] 78% | % residual kinase activity [7] 93% | % residual kinase activity [8] 108% | % residual kinase activity [9] 111% | % residual kinase activity [10] 115% | % residual kinase activity [11] 96%

Cc1nc(C2CCN(C(=O)c3ccc(OC(F)(F)F)cc3N)CC2)c2ncc(N3CCN(C)CC3)cc2n1 [BAY-693]
inactive: inhibition [12] -2.04% | inhibition [13] 2.66%
